This passage reports Ki and IC50 results from US10988477B2 (Merck Patent GmbH, priority 2018, dated 2021).

Broadly, the Ki is a dissociation constant, usually derived from enzyme kinetics or from competition with a known ligand. Read a low Ki as tighter binding. Usually IC50 stands for the concentration needed to halve the response being measured. A lower IC50 goes with inhibition by little substance.

The target of one experiment is GCN2 kinase (Homo sapiens, UniProt Q9P2K8). Put plainly: GCN2 enzyme inhibition assay (Transcreener ADP2 fluorescence polarization). The following applies: compounds of Formula II; 280 μM ATP, 4 nM GCN2 kinase. Type of experiment: biochemical. In outline: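 ADP formation read by Transcreener FP after a 1 h, 25 °C kinase reaction containing 280 μM ATP, 200 μM (RS)7 substrate and 4 nM GCN2, pH 7.5 Tris buffer. Compounds (0–8 μM final) were added 10 min before ATP. Percent inhibition gave IC50 and apparent Ki via tight-binding fit.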
Sequence of GCN2 kinase (Q9P2K8 whole entry): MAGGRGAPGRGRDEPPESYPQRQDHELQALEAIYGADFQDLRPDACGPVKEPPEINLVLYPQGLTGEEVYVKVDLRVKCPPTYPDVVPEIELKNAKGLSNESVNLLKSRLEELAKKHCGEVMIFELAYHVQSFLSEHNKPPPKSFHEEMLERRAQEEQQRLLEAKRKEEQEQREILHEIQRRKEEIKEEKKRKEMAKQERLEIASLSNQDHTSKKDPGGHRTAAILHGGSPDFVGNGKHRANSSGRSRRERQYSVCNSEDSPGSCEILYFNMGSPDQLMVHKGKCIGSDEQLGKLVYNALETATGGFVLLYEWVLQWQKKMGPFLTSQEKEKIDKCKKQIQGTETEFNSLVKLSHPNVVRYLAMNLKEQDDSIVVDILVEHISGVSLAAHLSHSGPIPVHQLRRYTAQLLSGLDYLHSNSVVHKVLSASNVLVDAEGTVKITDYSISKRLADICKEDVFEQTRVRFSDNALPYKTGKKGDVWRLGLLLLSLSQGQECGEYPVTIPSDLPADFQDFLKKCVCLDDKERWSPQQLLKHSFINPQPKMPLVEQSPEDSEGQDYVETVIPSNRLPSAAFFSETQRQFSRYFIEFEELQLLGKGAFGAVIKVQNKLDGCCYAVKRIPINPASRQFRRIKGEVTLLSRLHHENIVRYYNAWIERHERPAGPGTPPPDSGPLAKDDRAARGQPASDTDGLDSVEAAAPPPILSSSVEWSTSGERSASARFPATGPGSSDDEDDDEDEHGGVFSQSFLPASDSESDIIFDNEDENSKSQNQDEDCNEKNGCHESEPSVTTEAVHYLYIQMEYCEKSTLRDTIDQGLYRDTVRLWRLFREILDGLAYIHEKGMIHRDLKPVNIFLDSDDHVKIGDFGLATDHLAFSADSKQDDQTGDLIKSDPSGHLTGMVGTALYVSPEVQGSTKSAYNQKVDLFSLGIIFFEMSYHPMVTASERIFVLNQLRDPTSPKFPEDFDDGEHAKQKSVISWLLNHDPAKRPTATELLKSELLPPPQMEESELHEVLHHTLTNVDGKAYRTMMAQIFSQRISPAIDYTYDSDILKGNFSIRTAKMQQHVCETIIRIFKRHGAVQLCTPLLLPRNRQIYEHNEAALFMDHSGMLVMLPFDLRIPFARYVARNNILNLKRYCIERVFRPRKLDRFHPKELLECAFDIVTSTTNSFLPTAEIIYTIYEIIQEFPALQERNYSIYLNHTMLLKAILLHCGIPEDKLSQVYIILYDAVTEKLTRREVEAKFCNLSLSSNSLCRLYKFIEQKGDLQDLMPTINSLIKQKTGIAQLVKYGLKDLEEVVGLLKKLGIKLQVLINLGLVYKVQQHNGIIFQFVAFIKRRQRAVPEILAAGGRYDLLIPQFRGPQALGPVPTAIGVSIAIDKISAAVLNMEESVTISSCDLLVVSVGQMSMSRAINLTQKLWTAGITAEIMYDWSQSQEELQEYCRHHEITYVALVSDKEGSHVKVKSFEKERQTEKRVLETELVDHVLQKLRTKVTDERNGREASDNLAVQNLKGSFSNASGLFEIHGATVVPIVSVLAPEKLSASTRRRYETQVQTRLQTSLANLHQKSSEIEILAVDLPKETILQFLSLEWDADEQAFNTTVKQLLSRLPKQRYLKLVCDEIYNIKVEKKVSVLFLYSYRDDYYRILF
(Polarisation of emitted light reports the rotation of a fluorescent probe.)

Experiment [1] addresses intracellular GCN2 (phosphorylation of the GCN2 substrate eIF2α) (Homo sapiens, UniProt Q9P2K8). The experiment in a line: GCN2 cellular inhibition assay (AlphaScreen SureFire P-eIF2α Ser51, borrelidin-treated U2OS cells). The experiment is classed as cell-based. The following applies: compounds of Formula II; biomarker assay, phosphorylated eIF2α Ser51 in borrelidin-treated U2OS cells. The essentials: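 Read-out: AlphaScreen SureFire phospho-eIF2α (Ser51) signal in U2OS lysates. Cells get 4-fold compound dilutions (top 40 μM final) plus 10 μM borrelidin, 1 h, 37 °C. Percent inhibition is relative to borrelidin-alone controls.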
A general note: Bead proximity is the source of the signal in Alpha formats.

Sequence of intracellular GCN2 (phosphorylation of the GCN2 substrate eIF2α) (Q9P2K8 whole entry): as above

Compound `CS(=O)(=O)NC[C@H]1CCCN(c2cc(-c3cnc4ccc(C(F)(F)F)nn34)ncn2)C1` [II-291, (S)—N-((1-(6-(6-(Trifluoromethyl)imidazo[1,2-b]pyridazin-3-yl)pyrimidin-4-yl)piperidin-3-yl)methyl)methanesulfonamide] displayed a Ki on GCN2 kinase of under 10 nM. The same compound registered an IC50 in experiment [1] of under 500 nM.
Consider `CS(=O)(=O)NC[C@@H]1CN(c2cc(-c3cnc4ccc(C(F)(F)F)nn34)ncn2)CCO1` [II-292, (S)—N-((4-(6-(6-(Trifluoromethyl)imidazo[1,2-b]pyridazin-3-yl)pyrimidin-4-yl)morpholin-2-yl)methyl)methanesulfonamide], for which, on GCN2 kinase, the Ki lay in the range of 10 to 1000 nM. Further, in experiment [1], the IC50 was in the range of 500 to 5000 nM.
For `CC1CN(c2cc(-c3cnc4ccc(C(F)(F)F)nn34)ncn2)CC(CNS(C)(=O)=O)C1(F)F` (stereo not drawn) [II-293, N-((4,4-Difluoro-5-methyl-1-(6-(6-(trifluoromethyl)imidazo[1,2-b]pyridazin-3-yl)pyrimidin-4-yl)piperidin-3-yl)methyl)methanesulfonamide], the inhibition constant Ki on GCN2 kinase lay within 10 to 1000 nM. The compound further gave a concentration for half-maximal inhibition (IC50) in experiment [1] of 500 to 5000 nM.
In the case of `CC1CN(c2cc(-c3cnc4ccc(C(F)(F)F)nn34)ncn2)CC(CNS(C)(=O)=O)C1(F)F` (stereo not drawn) [II-294, N-((4,4-Difluoro-5-methyl-1-(6-(6-(trifluoromethyl)imidazo[1,2-b]pyridazin-3-yl)pyrimidin-4-yl)piperidin-3-yl)methyl)methanesulfonamide], at GCN2 kinase, the Ki was 10 to 1000 nM. For the same compound, the 50% inhibitory concentration (IC50) in experiment [1] was over 5000 nM.
In the case of `O=S1(=O)CCN(c2cc(-c3cnc4ccc(C(F)F)nn34)ncn2)CC1` [II-295, 4-(6-(6-(Difluoromethyl)imidazo[1,2-b]pyridazin-3-yl)pyrimidin-4-yl)thiomorpholine 1,1-dioxide], at GCN2 kinase, the inhibition constant (Ki) is over 1000 nM. In experiment [1], this compound registered an IC50 of over 5000 nM.
Regarding `[O-][S+]1CCN(c2cc(-c3cnc4ccc(C(F)F)nn34)ncn2)CC1` [II-296, 4-(6-(6-(Difluoromethyl)imidazo[1,2-b]pyridazin-3-yl)pyrimidin-4-yl)thiomorpholine 1-oxide], on GCN2 kinase, the Ki was over 1000 nM. The compound also gave an IC50 in experiment [1] of over 5000 nM.
On GCN2 kinase, `OC[C@@H]1CN(c2cc(-c3cnc4ccc(C(F)F)nn34)ncn2)C[C@@H](C(F)(F)F)O1` [II-297, ((2S,6S)-4-(6-(6-(Difluoromethyl)imidazo[1,2-b]pyridazin-3-yl)pyrimidin-4-yl)-6-(trifluoromethyl)morpholin-2-yl)methanol] gave an inhibition constant Ki of 10 to 1000 nM. The same compound showed an IC50 in experiment [1] of 500 to 5000 nM.
The compound `OC[C@H]1CN(c2cc(-c3cnc4ccc(C(F)F)nn34)ncn2)C[C@@H](C(F)(F)F)O1` [II-298, ((2R,6S)-4-(6-(6-(Difluoromethyl)imidazo[1,2-b]pyridazin-3-yl)pyrimidin-4-yl)-6-(trifluoromethyl)morpholin-2-yl)methanol] came in with a Ki at GCN2 kinase of 10 to 1000 nM. Further, the IC50 in experiment [1] fell in the range of 500 to 5000 nM.
`N#CCC1CCCN(c2cc(-c3cnc4ccc(C(F)F)nn34)ncn2)C1` (stereo not drawn) [II-299, 2-(1-(6-(6-(Difluoromethyl)imidazo[1,2-b]pyridazin-3-yl)pyrimidin-4-yl)piperidin-3-yl)acetonitrile] showed a Ki on GCN2 kinase of 10 to 1000 nM. The same compound came in with an IC50 in experiment [1] of 500 to 5000 nM.
The compound `CS(=O)(=O)NC[C@H]1CCCN(c2cc(-c3cnc4ccc(C(F)F)nn34)ncn2)C1` [II-300, (S)—N-((1-(6-(6-(Difluoromethyl)imidazo[1,2-b]pyridazin-3-yl)pyrimidin-4-yl)piperidin-3-yl)methyl)methanesulfonamide] returned a Ki on GCN2 kinase of under 10 nM. Moreover, the IC50 in experiment [1] is under 500 nM.
In turn, `FC(F)c1ccc2ncc(-c3cc(N4CCOC5CC54)ncn3)n2n1` (stereo not drawn) [II-301, 5-(6-(6-(Difluoromethyl)imidazo[1,2-b]pyridazin-3-yl)pyrimidin-4-yl)-2-oxa-5-azabicyclo[4.1.0]heptane] showed an inhibitory constant (Ki) on GCN2 kinase of 10 to 1000 nM. In addition, in experiment [1], the concentration for half-maximal inhibition (IC50) lay within 500 to 5000 nM.
On to `CS(=O)(=O)NC[C@H]1CN(c2cc(-c3cnc4ccc(C(F)F)nn34)ncn2)C[C@@H](C(F)(F)F)O1` [II-306, N-(((2R,6S)-4-(6-(6-(Difluoromethyl)imidazo[1,2-b]pyridazin-3-yl)pyrimidin-4-yl)-6-(trifluoromethyl)morpholin-2-yl)methyl)methanesulfonamide], for which the inhibition constant Ki at GCN2 kinase lay within 10 to 1000 nM. The compound further showed a 50% inhibitory concentration (IC50) in experiment [1] of 500 to 5000 nM.
In the same order, the values of `CS(=O)(=O)NC[C@@H]1CN(c2cc(-c3cnc4ccc(C(F)F)nn34)ncn2)C[C@@H](C(F)(F)F)O1` [II-307, N-(((2S,6S)-4-(6-(6-(Difluoromethyl)imidazo[1,2-b]pyridazin-3-yl)pyrimidin-4-yl)-6-(trifluoromethyl)morpholin-2-yl)methyl)methanesulfonamide] are 10 to 1000 nM and 500 to 5000 nM.
In the same order, the values of `FC(F)c1ccc2ncc(-c3cc(N4CCCCC4)ncn3)n2n1` [II-308, 6-(Difluoromethyl)-3-(6-(piperidin-1-yl)pyrimidin-4-yl)imidazo[1,2-b]pyridazine] are 10 to 1000 nM and over 5000 nM.
`O=C1COC2(CN1)COCCN(c1cc(-c3cnc4ccc(C(F)F)nn34)ncn1)C2` (stereo not drawn) [II-309, 11-(6-(6-(Difluoromethyl)imidazo[1,2-b]pyridazin-3-yl)pyrimidin-4-yl)-1,8-dioxa-4,11-diazaspiro[5.6]dodecan-3-one] registered an inhibitory constant (Ki) at GCN2 kinase of over 1000 nM. The same compound gave a concentration for half-maximal inhibition (IC50) in experiment [1] of over 5000 nM.
On to `CN(CC1CCCN(c2cc(-c3cnc4ccc(C(F)F)nn34)ncn2)C1)S(C)(=O)=O` (stereo not drawn) [II-310, N-((1-(6-(6-(Difluoromethyl)imidazo[1,2-b]pyridazin-3-yl)pyrimidin-4-yl)piperidin-3-yl)methyl)-N-methylmethanesulfonamide], for which the inhibitory constant (Ki) on GCN2 kinase lay in the range of 10 to 1000 nM. Further, the IC50 in experiment [1] is 500 to 5000 nM.
For the compound `CN(CC1CCCN(c2cc(-c3cnc4ccc(C(F)F)nn34)ncn2)C1)S(N)(=O)=O` (stereo not drawn) [II-311, 1-((1-(6-(6-(Difluoromethyl)imidazo[1,2-b]pyridazin-3-yl)pyrimidin-4-yl)piperidin-3-yl)methyl)-1-methylsulfuric diamide], the inhibition constant (Ki) at GCN2 kinase is under 10 nM. In addition, in experiment [1], the half-maximal inhibitory concentration (IC50) is under 500 nM.
Regarding `CC1C(CNS(C)(=O)=O)NCCN1c1cc(-c2cnc3ccc(C(F)F)nn23)ncn1` (stereo not drawn) [II-313, N-[[4-[6-[6-(Difluoromethyl)imidazo[1,2-b]pyridazin-3-yl]pyrimidin-4-yl]-3-methyl-piperazin-2-yl]methyl]methanesulfonamide], the inhibitory constant (Ki) at GCN2 kinase was under 10 nM. The IC50 in experiment [1] was under 500 nM.
In the same order, the values of `OC[C@@H]1C[C@@H](C(F)(F)F)CN(c2cc(-c3cnc4ccc(C(F)F)nn34)ncn2)C1` [II-314, ((3R,5R)-1-(6-(6-(Difluoromethyl)imidazo[1,2-b]pyridazin-3-yl)pyrimidin-4-yl)-5-(trifluoromethyl)piperidin-3-yl)methanol] are 10 to 1000 nM and over 5000 nM.
On GCN2 kinase, `OC[C@H]1C[C@@H](C(F)(F)F)CN(c2cc(-c3cnc4ccc(C(F)F)nn34)ncn2)C1` [II-315, ((3S,5R)-1-(6-(6-(Difluoromethyl)imidazo[1,2-b]pyridazin-3-yl)pyrimidin-4-yl)-5-(trifluoromethyl)piperidin-3-yl)methanol] displayed an inhibition constant Ki of 10 to 1000 nM. Besides, the IC50 in experiment [1] is over 5000 nM.
In turn, `C[C@H]1CN(c2cc(-c3cnc4ccc(C(F)F)nn34)ncn2)C[C@@H](CNS(N)(=O)=O)C1(F)F` [II-316, 1-(((3S,5S)-1-(6-(6-(Difluoromethyl)imidazo[1,2-b]pyridazin-3-yl)pyrimidin-4-yl)-4,4-difluoro-5-methylpiperidin-3-yl)methyl)sulfuric diamide] gave an inhibition constant (Ki) on GCN2 kinase of under 10 nM. This compound also displayed a concentration for half-maximal inhibition (IC50) in experiment [1] of under 500 nM.
